# Legend:
# Type in all cases: physicochemical
# [1] = Dynamic vapor sorption (DVS)
# Experimental: DVS was measured via a SMS (Surface Measurement Systems) DVS Intrinsic. The relative humidity at 25° C. were calibrated against deliquescence point of LiCl, Mg(NO3)2 and KCl.
# (onset temperature). Considering the low TGA weight loss and single sharp DSC endotherm, Form A was postulated to be an anhydrate. […] The HPLC purity of starting material was measured as 99.78 area % (see chromatogram of FIG. 6) and the impurity summary is listed in Table 2.
# [2] = Physical and chemical stability of solid on storage (XRPD, HPLC purity)
# Experimental: To evaluate the physical and chemical stability, Compound (1) Form A was stored in 3 conditions (40° C./75% RH; 25° C./60% RH; and 60° C.) for one and four weeks.
# [3] = Kinetic solubility in bio-relevant media and H2O; settings: for Final Form: 37° C.
# Experimental: Solids were suspended in FaSSIF, FeSSIF, SGF and H2O with target conc. of ˜10 mg/mL. The suspensions were agitated on a rolling incubator at 25 rpm (in the incubator set at 37° C.) for 1, 4 and 24 hrs. At each time point, 1 mL of the suspension was pipetted out for centrifugation at 15000 rpm (3 min) and filtration through 0.45 μm membrane to obtain supernatant for HPLC solubility and pH tests, the residual solids were analyzed by XRPD.
# [4] = 24-Hrs solubility in pH buffers; settings: for Final Form: 24 hrs
# Experimental: 24-Hrs solubility of Form A was measured in pH buffers (i.e., pH 2.0, 4.0, 6.0, 7.0, 8.0) at RT. Solids were suspended in pH buffers with target conc. of ˜10 mg/mL.
# [5] = Solution stability in pH buffers; settings: 37° C.
# Experimental: Solution stability study was performed in pH 2.0/4.0/6.0/7.0 (24 hrs) and pH 8.0 (24 hrs and 96 hrs) buffers. Solids were dissolved with pH buffers with target conc. of ˜0.5 mg/ml to form clear solutions and stored at 37° C. for 24 hrs or 96 hrs.
# [6] = all conditions (40° C./75% RH, 25° C./60% RH, 60° C.; one and four weeks)
# [7] = pH 7.0 (50 mM Phosphate), 24 hrs
# [8] = pH 8.0 (50 mM Phosphate), 24 hrs
# [9] = pH 8.0 (50 mM Phosphate), 96 hrs
smiles,measurement,setting,value
"CC(C)(C(=O)N1CCOc2c(C#N)cncc2C1)C(F)F [Form A, 4-(3,3-difluoro-2,2-dimethyl-propanoyl)-3,5-dihydro-2H-pyrido[3,4-f][1,4]oxazepine-9-carbonitrile]",water uptake (DVS),[1]; 25° C./80% RH,0.024%
same,form change after DVS test (XRPD),[1]; after DVS test,no form change
same,API (RRT 1.00),"[2]; 1 week, 25° C./60% RH",99.92 % Area
same,Description,"[2]; 1 week, 25° C./60% RH",White powder
same,Final Form,"[2]; 1 week, 25° C./60% RH",Form A
same,Imp.1 (RRT 0.68),"[2]; 1 week, 25° C./60% RH",0.08 % Area
same,Purity vs. initial (%),"[2]; 1 week, 25° C./60% RH",100.0%
same,API (RRT 1.00),"[2]; 1 week, 40° C./75% RH",99.89 % Area
same,Description,"[2]; 1 week, 40° C./75% RH",White powder
same,Final Form,"[2]; 1 week, 40° C./75% RH",Form A
same,Imp.1 (RRT 0.68),"[2]; 1 week, 40° C./75% RH",0.11 % Area
same,Purity vs. initial (%),"[2]; 1 week, 40° C./75% RH",100.0%
same,API (RRT 1.00),"[2]; 1 week, 60° C.",99.90 % Area
same,Description,"[2]; 1 week, 60° C.",White powder
same,Final Form,"[2]; 1 week, 60° C.",Form A
same,Imp.1 (RRT 0.68),"[2]; 1 week, 60° C.",0.10 % Area
same,Purity vs. initial (%),"[2]; 1 week, 60° C.",100.0%
same,API (RRT 1.00),"[2]; 4 weeks, 25° C./60% RH",99.90 % Area
same,Description,"[2]; 4 weeks, 25° C./60% RH",White powder
same,Final Form,"[2]; 4 weeks, 25° C./60% RH",Form A
same,Imp.1 (RRT 0.68),"[2]; 4 weeks, 25° C./60% RH",0.10 % Area
same,Purity vs. initial (%),"[2]; 4 weeks, 25° C./60% RH",100.0%
same,API (RRT 1.00),"[2]; 4 weeks, 40° C./75% RH",99.90 % Area
same,Description,"[2]; 4 weeks, 40° C./75% RH",White powder
same,Final Form,"[2]; 4 weeks, 40° C./75% RH",Form A
same,Imp.1 (RRT 0.68),"[2]; 4 weeks, 40° C./75% RH",0.10 % Area
same,Purity vs. initial (%),"[2]; 4 weeks, 40° C./75% RH",100.0%
same,API (RRT 1.00),"[2]; 4 weeks, 60° C.",99.90 % Area
same,Description,"[2]; 4 weeks, 60° C.",White powder
same,Final Form,"[2]; 4 weeks, 60° C.",Form A
same,Imp.1 (RRT 0.68),"[2]; 4 weeks, 60° C.",0.10 % Area
same,Purity vs. initial (%),"[2]; 4 weeks, 60° C.",100.0%
same,HPLC purity change on storage,[2]; [6],no obvious HPLC purity change
same,form change on storage (XRPD),[2]; [6],no form change
same,Final Form,"[3]; FaSSIF (pH 6.5), 1 hr",Form A
same,Final Form,"[3]; FaSSIF (pH 6.5), 4 hr",Form A
same,Final Form,"[3]; FaSSIF (pH 6.5), 24 hr",Form A
same,Final Form,"[3]; FeSSIF (pH 5.0), 1 hr",Form A
same,Final Form,"[3]; FeSSIF (pH 5.0), 4 hr",Form A
same,Final Form,"[3]; FeSSIF (pH 5.0), 24 hr",Form A
same,Final Form,"[3]; H2O (pH 6.5), 1 hr",Form A
same,Final Form,"[3]; H2O (pH 6.5), 4 hr",Form A
same,Final Form,"[3]; H2O (pH 6.5), 24 hr",Form A
same,Final Form,"[3]; SGF (pH 1.8), 1 hr",Form A
same,Final Form,"[3]; SGF (pH 1.8), 4 hr",Form A
same,Final Form,"[3]; SGF (pH 1.8), 24 hr",Form A
same,form change after kinetic solubility test (XRPD),[3]; bio-relevant media or H2O,No form change
same,Final Form,[4]; pH 2.0 (50 mM HCl—KCl),Form A
same,Final Form,[4]; pH 4.0 (50 mM Citrate),Form A
same,Final Form,[4]; pH 6.0 (50 mM Citrate),Form A
same,Final Form,[4]; pH 7.0 (50 mM Phosphate),Form A
same,Final Form,[4]; pH 8.0 (50 mM Phosphate),Form A
same,form change after equilibrium solubility evaluation (XRPD),[4]; pH buffers,no form change
same,API (RRT 1.00),"[5]; pH 2.0 (50 mM HCl—KCl), 24 hrs",84.93 % Area
same,Imp. 1 (RRT 0.66),"[5]; pH 2.0 (50 mM HCl—KCl), 24 hrs",0.15 % Area
same,Imp. 1 (RRT 0.70),"[5]; pH 2.0 (50 mM HCl—KCl), 24 hrs",0.67 % Area
same,Imp. 1 (RRT 0.76),"[5]; pH 2.0 (50 mM HCl—KCl), 24 hrs",14.25 % Area
same,Imp. 1 (RRT 1.05),"[5]; pH 2.0 (50 mM HCl—KCl), 24 hrs",— (—: <0.05 area %)
same,Purity vs. initial (%),"[5]; pH 2.0 (50 mM HCl—KCl), 24 hrs",85.1%
same,degradation in solution,"[5]; pH 2.0 and pH 4.0 buffers, 24 hrs",Degradation was observed
same,API (RRT 1.00),"[5]; pH 4.0 (50 mM Citrate), 24 hrs",98.42 % Area
same,Imp. 1 (RRT 0.66),"[5]; pH 4.0 (50 mM Citrate), 24 hrs",0.15 % Area
same,Imp. 1 (RRT 0.70),"[5]; pH 4.0 (50 mM Citrate), 24 hrs",— (—: <0.05 area %)
same,Imp. 1 (RRT 0.76),"[5]; pH 4.0 (50 mM Citrate), 24 hrs",0.38 % Area
same,Imp. 1 (RRT 1.05),"[5]; pH 4.0 (50 mM Citrate), 24 hrs",0.06 % Area
same,Purity vs. initial (%),"[5]; pH 4.0 (50 mM Citrate), 24 hrs",98.5%
same,API (RRT 1.00),"[5]; pH 6.0 (50 mM Citrate), 24 hrs",99.75 % Area
same,Imp. 1 (RRT 0.66),"[5]; pH 6.0 (50 mM Citrate), 24 hrs",0.13 % Area
same,Imp. 1 (RRT 0.70),"[5]; pH 6.0 (50 mM Citrate), 24 hrs",— (—: <0.05 area %)
same,Imp. 1 (RRT 0.76),"[5]; pH 6.0 (50 mM Citrate), 24 hrs",0.06 % Area
same,Imp. 1 (RRT 1.05),"[5]; pH 6.0 (50 mM Citrate), 24 hrs",0.06 % Area
same,Purity vs. initial (%),"[5]; pH 6.0 (50 mM Citrate), 24 hrs",99.8%
same,API (RRT 1.00),[5]; [7],99.78 % Area
same,Imp. 1 (RRT 0.66),[5]; [7],0.15 % Area
same,Imp. 1 (RRT 0.70),[5]; [7],— (—: <0.05 area %)
same,Imp. 1 (RRT 0.76),[5]; [7],— (—: <0.05 area %)
same,Imp. 1 (RRT 1.05),[5]; [7],0.07 % Area
same,Purity vs. initial (%),[5]; [7],99.9%
same,API (RRT 1.00),[5]; [8],99.81 % Area
same,Imp. 1 (RRT 0.66),[5]; [8],0.13 % Area
same,Imp. 1 (RRT 0.70),[5]; [8],— (—: <0.05 area %)
same,Imp. 1 (RRT 0.76),[5]; [8],— (—: <0.05 area %)
same,Imp. 1 (RRT 1.05),[5]; [8],0.06 % Area
same,Purity vs. initial (%),[5]; [8],100.0%
same,API (RRT 1.00),[5]; [9],99.83 % Area
same,Imp. 1 (RRT 0.66),[5]; [9],0.13 % Area
same,Imp. 1 (RRT 0.70),[5]; [9],— (—: <0.05 area %)
same,Imp. 1 (RRT 0.76),[5]; [9],— (—: <0.05 area %)
same,Imp. 1 (RRT 1.05),[5]; [9],0.04 % Area
same,Purity vs. initial (%),[5]; [9],100.0%

# — patent US20240317776A1, “SOLID FORMS OF 4-(3,3-DIFLUORO-2,2-DIMETHYL-PROPANOYL)-3,5-DIHYDRO-2H-PYRIDO[3,4-F][1,4]OXAZEPINE-9-CARBONITRILE” (Denali Therapeutics Inc., priority 2022, published 2024)
